One assay deals with T1, ACK1 (Homo sapiens, UniProt Q07912).
T1 construct: a fusion of an N-terminal (His)6 Tag with amino acids 117 to 489 of ACK1; (His)6 (N); made in house; host or cells: baculovirus infected Hi-5 insect cells
The assay is described as follows: ACK1 Enzymatic Assay. In kind it is biochemical. The conditions noted are these: 5 μM ATP, ELISA phosphotyrosine readout. As for the experimental part: IC50 values of inventive compounds may be assessed as follows. […] The substrate of for the reaction is ACK1 itself (autophosphorylation) and poly-Glutamic acid-Tyrosine (PGT (4:1), Sigma catalog #PO275). The PGT is coated to Nunc 96 well plates at 80 μg/mL overnight at 4° C. […] Test compounds are added in 10 μL DMSO, and the reaction is started by addition of 10 μL kinase in assay buffer. The reaction proceeds 2 h at room temperature. Next the plates are washed four times, and the level of tyrosine phosphorylation in a given well is quantified by standard ELISA assay utilizing a phosphotyrosine antibody (PY20, Pierce).
(In general: In an ELISA, binding on a coated surface is turned into a signal by an enzyme label.)

The next assay deals with T2, LCK (Homo sapiens, UniProt P06239).
T2 construct: 15 μL of LCK KD GST (225-509) for a final volume of 40 μL; GST
T2 sequence (P06239 225-509): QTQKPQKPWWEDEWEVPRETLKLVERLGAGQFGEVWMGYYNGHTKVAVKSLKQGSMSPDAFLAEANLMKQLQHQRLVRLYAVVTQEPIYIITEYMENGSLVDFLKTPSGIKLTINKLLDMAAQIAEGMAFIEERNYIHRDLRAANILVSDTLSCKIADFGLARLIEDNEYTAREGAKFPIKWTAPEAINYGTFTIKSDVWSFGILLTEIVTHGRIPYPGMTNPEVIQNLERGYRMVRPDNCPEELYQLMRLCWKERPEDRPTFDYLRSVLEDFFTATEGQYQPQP
Put plainly: LCK-Homogeneous Time Resolved Fluorescent (HTRF) Kinase Assay. In kind it is biochemical. As to conditions: LCK KD GST (225-509). As for the experimental part:
The LCK HTRF assay begins with LCK in the presence of ATP phosphorylating the biotinylated peptide Gastrin. The reaction incubates for 90 min. To quench the assay detection reagents are added which both stop the reaction by diluting out the enzyme and chelating the metals due to the presence of EDTA. Once the detection reagents are added the assay incubates for 30 min to allow for equilibration of the detection reagents.
The final concentration of gastrin is 1.2 μM. The final concentration of ATP is 0.5 μM (Km app=[…]) and the final concentration of LCK is […]. Buffer conditions are as follows: 50 mM HEPES pH 7.5, 50 mM NaCl, 20 mM MgCl, 5 mM MnCl, 2 mM DTT, 0.05% BSA.
The assay is quenched and stopped with 160 μL of detection reagent. Detection reagents are as follows: Buffer made of 50 mM Tris, pH 7.5, 100 mM NaCl, 3 mM EDTA, 0.05% BSA, 0.1% Tween20. Added to this buffer prior to reading is Steptavidin allophycocyanin (SA-APC) at a final conc in the assay of 0.0004 mg/mL, and europilated anti-phosphotyrosine Ab (Eu-anti-PY) at a final conc of 0.025 nM.
The assay plate is read in either a Discovery or a RubyStar. The eu-anti-PY is excited at 320 nm and emits at 615 nm to excite the SA-APC which in turn emits at 655 nm. The ratio of SA-APC at 655 nm (excited due to close proximity to the Eu-anti-PY because of phosphorylation of the peptide) to free Eu-anti-PY at 615 nm will give substrate phosphorylation.

In another assay the test system is C8 cells. The assay is described as follows: ACK1 Cell Based Assay, test (C8) cell line. The conditions noted are these: 0.125% FCS, 20 to 24 h, cell viability (Cytotox One kit). As for the experimental part: The ACK1 cell based assay is designed to find inhibitors of ACK1 kinase activity which would be prime candidates for the development of anticancer drugs. […] This dependency was confirmed utilizing ACK1 specific siRNAs.
For this assay, test (C8) and control (HeLa) cell lines are seeded in 96 well tissue culture plates (BD Falcon) at a density of 2 to 4×10^4 in DMEM/F12 (C8) or DMEM (HeLa) with 0.125% FCS in the presence of ACK1 inhibitors (final DMSO concentration is 0.5%, all tissue culture media are from Cellgro). After 20 to 24 h incubation at 37° C. and 5% CO2, cell viability is determined using the Cytotox One kit (Promega) according to the manufacturer's instructions.

Molecules are shown by their SMILES.

T1 sequence (Q07912 117-489): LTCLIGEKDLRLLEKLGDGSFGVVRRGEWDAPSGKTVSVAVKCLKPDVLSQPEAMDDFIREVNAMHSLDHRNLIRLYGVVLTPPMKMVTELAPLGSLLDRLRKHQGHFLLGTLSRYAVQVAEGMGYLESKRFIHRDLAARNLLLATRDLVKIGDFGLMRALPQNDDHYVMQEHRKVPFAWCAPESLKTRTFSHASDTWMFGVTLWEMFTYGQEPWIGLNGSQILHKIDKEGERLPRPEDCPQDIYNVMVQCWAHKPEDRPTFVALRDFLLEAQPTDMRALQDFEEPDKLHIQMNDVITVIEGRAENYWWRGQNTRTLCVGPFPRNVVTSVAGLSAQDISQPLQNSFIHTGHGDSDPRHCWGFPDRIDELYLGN

Usually Ki stands for a measure of affinity in units of concentration, obtained from inhibition or displacement. A lower Ki goes with a stronger hold on the target. Usually IC50 stands for the midpoint of a concentration-inhibition curve. Regarding `CO[C@@H]1CC[C@H]1CNc1ncnc2[nH]c(-c3ccc(OCCN(C)C)cc3)c(-c3ccccc3)c12` (mixture of isomers) [Example 35, trans/cis-{6-[4-(2-Dimethylamino-ethoxy)-phenyl]-5-phenyl-7H-pyrrolo[2,3-d]pyrimidin-4-yl}-(2-methoxy-cyclobutylmethyl)-amine], the inhibitory constant (Ki) on ACK1 was 10 to 100 nM; on LCK it was below 10 nM. In the assay with C8 cells, this molecule registered a 50% inhibitory concentration (IC50) above 100 nM.

On ACK1, `CN(C)CCOc1ccc(-c2[nH]c3ncnc(NC[C@@H]4CC[C@H]4O)c3c2-c2ccccc2)cc1` (mixture of isomers) [Example 36, trans/cis-2-({6-[4-(2-Dimethylamino-ethoxy)-phenyl]-5-phenyl-7H-pyrrolo[2,3-d]pyrimidin-4-ylamino}-methyl)-cyclobutanol] had an inhibition constant (Ki) of 10 to 100 nM. In addition, the IC50 in the assay with C8 cells is above 100 nM.

As for `CN(C)CCOc1ccc(-c2[nH]c3ncnc(NC[C@H]4CCC[C@H]4O)c3c2-c2ccccc2)cc1` (relative stereo) [Example 37, cis-2-({6-[4-(2-Dimethylamino-ethoxy)-phenyl]-5-phenyl-7H-pyrrolo[2,3-d]pyrimidin-4-ylamino}-methyl)-cyclopentanol], the Ki on LCK was below 10 nM. The IC50 in the assay with C8 cells was above 100 nM.

For the molecule `CN(C)CCOc1ccc(-c2[nH]c3ncnc(NC[C@H]4CCC[C@H]4N)c3c2-c2ccccc2)cc1` (relative stereo) [Example 38, cis-(2-Amino-cyclopentylmethyl)-{6-[4-(2-dimethylamino-ethoxy)-phenyl]-5-phenyl-7H-pyrrolo[2,3-d]pyrimidin-4-yl}-amine], the Ki was above 100 nM on ACK1 and 10 to 100 nM on LCK. Further, in the assay on C8 cells, the IC50 is above 100 nM.

Turning to `CN(C)CCOc1ccc(-c2[nH]c3ncnc(NC[C@H]4CCC[C@H]4NS(C)(=O)=O)c3c2-c2ccccc2)cc1` (relative stereo) [Example 39, cis-N-[2-({6-[4-(2-Dimethylamino-ethoxy)-phenyl]-5-phenyl-7H-pyrrolo[2,3-d]pyrimidin-4-ylamino}-methyl)-cyclopentyl]-methanesulfonamide], the inhibitory constant (Ki) is above 100 nM on ACK1 and below 10 nM at LCK. The molecule also returned an IC50 in the assay on C8 cells above 100 nM.

Turning to `CN(C)CCOc1ccc(-c2[nH]c3ncnc(NC[C@@H]4CCC[C@H]4N)c3c2-c2ccccc2)cc1` (relative stereo) [Example 40, trans-(2-Amino-cyclopentylmethyl)-{6-[4-(2-dimethylamino-ethoxy)-phenyl]-5-phenyl-7H-pyrrolo[2,3-d]pyrimidin-4-yl}-amine], the values for the Ki at ACK1 and at LCK were above 100 nM and below 10 nM, respectively. The IC50 in the assay with C8 cells was above 100 nM.

For the molecule `CN(C)CCOc1ccc(-c2[nH]c3ncnc(NC[C@@H]4CCC[C@H]4NS(C)(=O)=O)c3c2-c2ccccc2)cc1` (relative stereo) [Example 41, trans-N-[2-({6-[4-(2-Dimethylamino-ethoxy)-phenyl]-5-phenyl-7H-pyrrolo[2,3-d]pyrimidin-4-ylamino}-methyl)-cyclopentyl]-methanesulfonamide], the Ki is 10 to 100 nM at ACK1 and below 10 nM at LCK. The IC50 in the assay with C8 cells is above 100 nM.

Turning to `c1ccc(-c2[nH]c3ncnc(NCCN4CCOCC4)c3c2-c2ccccc2)cc1` [Example 1, (5,6-Diphenyl-7H-pyrrolo[2,3-d]pyrimidin-4-yl)-(2-morpholin-4-ylethyl)-amine], the Ki on ACK1 and at LCK was 10 to 100 nM each time. The molecule also gave an IC50 with C8 cells above 100 nM.

Regarding `c1ccc(-c2[nH]c3ncnc(NCC4CCCO4)c3c2-c2ccccc2)cc1` (stereo not drawn) [Example 2, (5,6-Diphenyl-7H-pyrrolo[2,3-d]pyrimidin-4-yl)-(tetrahydrofuran-2-ylmethyl)-amine], the Ki on ACK1 and at LCK was below 10 nM each time. For the same molecule, the IC50 with C8 cells is above 100 nM.

As for `c1ccc(-c2[nH]c3ncnc(NCC4CCCS4)c3c2-c2ccccc2)cc1` (stereo not drawn) [Example 3, (5,6-Diphenyl-7H-pyrrolo[2,3-d]pyrimidin-4-yl)-(tetrahydrothiophen-2-ylmethyl)-amine], the Ki on ACK1 was 10 to 100 nM; at LCK, below 10 nM. This molecule gave an IC50 with C8 cells above 100 nM.

For `c1ccc(-c2[nH]c3ncnc(NCC4CCCCO4)c3c2-c2ccccc2)cc1` (stereo not drawn) [Example 4, (5,6-Diphenyl-7H-pyrrolo[2,3-d]pyrimidin-4-yl)-(tetrahydropyran-2-ylmethyl) amine], the Ki on ACK1 is 10 to 100 nM; on LCK, below 10 nM. Also, the concentration for half-maximal inhibition (IC50) in the assay with C8 cells was above 100 nM.

In the case of `CN(C)S(=O)(=O)c1ccc(-c2[nH]c3ncnc(NC[C@@H]4CCCO4)c3c2-c2ccccc2)cc1` [Example 5, N,N-Dimethyl-4-{5-phenyl-4-[(tetrahydro-furan-2-ylmethyl)-amino]-7H-pyrrolo[2,3-d]pyrimidin-6-yl}-benzenesulfonamide], the Ki at ACK1 and at LCK was below 10 nM in each case. In addition, the IC50 with C8 cells lay within 10 to 100 nM.

With `CNS(=O)(=O)c1ccc(-c2[nH]c3ncnc(NCC4CCCO4)c3c2-c2ccccc2)cc1` (stereo not drawn) [Example 6, N-Methyl-4-{5-phenyl-4-[(tetrahydrofuran-2-ylmethyl)-amino]-7H-pyrrolo[2,3-d]pyrimidin-6-yl}-benzenesulfonamide], the inhibitory constant (Ki) at ACK1 and at LCK was below 10 nM in each case. In the assay with C8 cells, this molecule had a concentration for half-maximal inhibition (IC50) of 10 to 100 nM.

Turning to `CCN(CC)S(=O)(=O)c1ccc(-c2[nH]c3ncnc(NCC4CCCO4)c3c2-c2ccccc2)cc1` (stereo not drawn) [Example 7, N,N-Diethyl-4-{5-phenyl-4-[(tetrahydrofuran-2-ylmethyl)-amino]-7H-pyrrolo[2,3-d]pyrimidin-6-yl}-benzenesulfonamide], the Ki on ACK1 and at LCK was below 10 nM in each case. In the assay on C8 cells, this molecule displayed an IC50 above 100 nM.

For the molecule `COCCN(CCOC)S(=O)(=O)c1ccc(-c2[nH]c3ncnc(NCC4CCCO4)c3c2-c2ccccc2)cc1` (stereo not drawn) [Example 8, N,N-Bis-(2-methoxyethyl)-4-{5-phenyl-4-[(tetrahydrofuran-2-ylmethyl)-amino]-7H-pyrrolo[2,3-d]pyrimidin-6-yl}-benzenesulfonamide], the inhibitory constant (Ki) on ACK1 and on LCK was below 10 nM in each case. Besides, in the assay on C8 cells, the 50% inhibitory concentration (IC50) was above 100 nM.

With `COCCNS(=O)(=O)c1ccc(-c2[nH]c3ncnc(NCC4CCCO4)c3c2-c2ccccc2)cc1` (stereo not drawn) [Example 9, N-(2-Methoxyethyl)-4-{5-phenyl-4-[(tetrahydrofuran-2-ylmethyl)-amino]-7H-pyrrolo[2,3-d]pyrimidin-6-yl}-benzenesulfonamide], the Ki on ACK1 and at LCK was below 10 nM each time. In the assay with C8 cells, this molecule gave an IC50 of 10 to 100 nM.

Take `O=S(=O)(c1ccc(-c2[nH]c3ncnc(NCC4CCCO4)c3c2-c2ccccc2)cc1)N1CCOCC1` (stereo not drawn) [Example 10, {6-[4-(Morpholin-4-sulfonyl)-phenyl]-5-phenyl-7H-pyrrolo[2,3-d]pyrimidin-4-yl}-(tetrahydrofuran-2-ylmethyl)-amine]: the inhibitory constant (Ki) on ACK1 and on LCK was below 10 nM each time. Besides, the half-maximal inhibitory concentration (IC50) in the assay on C8 cells is above 100 nM.

Turning to `O=S(=O)(NCCN1CCOCC1)c1ccc(-c2[nH]c3ncnc(NCC4CCCO4)c3c2-c2ccccc2)cc1` (stereo not drawn) [Example 11, N-(2-Morpholin-4-yl-ethyl)-4-{5-phenyl-4-[(tetrahydrofuran-2-ylmethyl)-amino]-7H-pyrrolo[2,3-d]pyrimidin-6-yl}-benzenesulfonamide], the Ki on ACK1 and on LCK was below 10 nM throughout. In the assay on C8 cells, the IC50 lay within 10 to 100 nM.

In turn, `CN(C)CCOc1ccc(-c2[nH]c3ncnc(NCC4SCCS4)c3c2-c2ccccc2)cc1` [Example 33, {6-[4-(2-Dimethylaminoethoxy)-phenyl]-5-phenyl-7H-pyrrolo[2,3-d]pyrimidin-4-yl}-[1,3]dithiolan-2-ylmethyl-amine] showed a Ki on LCK below 10 nM. In addition, the 50% inhibitory concentration (IC50) in the assay with C8 cells was below 10 nM.

The record behind these values is US7358250B2, “Pyrrolo[2,3-d]pyrimidines that modulate ACK1 activity” (Amgen Inc., priority 2004, dated 2008).
